Experimental data taken from US9493782B2, “Inducible promoter sequences for regulated expression and methods of use” (PIONEER HI-BRED INTERNATIONAL INC, priority 2012, dated 2016).

Columns and labels:
[1] = tested on: 1.7 kb ZmCAS1 promoter driving MS45; test: Western analysis of MS45 protein in ms45/ms45 maize plants transformed with PHP16973; type: in vivo; conditions: PHP16973 plants watered with 30 mg CBSU at meiosis stage, collected 2 days later
[2] = tested on: 1.7 kb ZmCAS1 promoter driving GUS reporter; test: GUS staining (X-Gluc) of maize callus events transformed with PHP16975; type: cell-based; conditions: room temperature, 18 hours, FIG. 4A
Excerpt: Agrobacterium-mediated transformation of immature embryos was used to generate integrated copies of PHP16974 (SEQ ID NO:11; ZmCAS1HindIII Pro:GUS/35SPAT) comprising the 1.0 kb ZmCAS1 promoter (SEQ ID NO:9), PHP16975 (SEQ ID NO:12, ZmCAS1BamPro:GUS/35SPAT) comprising the 1.7 kb ZmCAS1 promoter (SEQ ID NO:10) and PHP16972 (SEQ ID NO:13, ZmCAS1HindIII Pro:MS45/35SPAT) comprising the 1.0 kb ZmCAS1 promoter or PHP16973 (SEQ ID NO:14, ZmCAS1BamPro:MS45/35SPAT:) comprising the 1.7 kb ZmCAS1 promoter.
To determine whether the 1.7 kb or the 1.0 kb ZmCAS1 promoter from maize could direct induced expression of the GUS reporter, three bialophos-resistant callus events were placed onto maintenance media and maintenance media containing increasing amounts of the safener CBSU-2 for at room temperature for 18 hours, removed and stained with X-Gluc to detect GUS activity.

[3] = tested on: 1.7 kb ZmCAS1 promoter driving GUS reporter; test: GUS expression in leaf punches of maize plants transformed with PHP16975; type: in vivo; conditions: 3 PHP16975 plants, about 5 leaf stage, 2 days after watering with 30 mg 2-CBSU; FIG. 5
Protocol: Plants were also regenerated from callus events containing PHP16975 and grown in the greenhouse to approximately the 5 leaf stage. At this stage of development, leaf punches from plants regenerated from the 3 bialophos-resistant events shown in FIG. 5 were collected pre- (C) and post-watering (S) with 30 mg of 2-CBSU to examine GUS expression in leaf in response to application of the safener.

[4] = tested on: IN2-2 transcript; test: Northern blot of maize anther RNA from CBSU-treated plants, IN2-2 probe; type: in vivo; conditions: CBSU-treated male-fertile and male-sterile plants; not detectable in untreated controls; FIG. 2
Protocol: (§1) Wild type maize plants were grown to the meiosis stage of microspore development. Plants were watered with 30 mg 2-CBSU and allowed to develop to the quartet and early vacuolate stage of microspore development. PolyA+ anther RNA was isolated from wild type control and CBSU treated plants and stored. A cDNA library was constructed from mRNAs isolated from CBSU-treated plants, arrayed onto nylon filters and stored. A cDNA subtraction library was generated using the Clontech PCR-Select cDNA Subtraction Kit (#K1804-1) following the manufacturer's instructions to enrich for CBSU-specific transcripts. Using this approach anther PolyA+ mRNA from wild-type plants was used to enrich for transcripts found in the anther PolyA+ mRNA from CBSU treated plants. […]
(§2) To determine whether the ZmCAS1 cDNA was 1) induced in maize anthers by CBSU-treatment and 2) reduced or absent in tapetum and microspore-ablated maize anthers from CBSU-treated 5126:DAM plants, a 477 bp ZmCAS1c-1 DNA fragment (SEQ ID NO:1), as well as DNA fragments from ZmMS45, Zm5126, ZmActin, and ZmUbiquitin (Cigan et al. 2001. […] MS45 and 5126 transcripts were easily detected in anther RNAs from male-fertile plants but absent in anther RNAs from male-sterile plants (FIG. 2) further supporting the observation that these RNAs are localized to the maize tapetum (Cigan et al. 2001. Sex. Plant Reprod. 14, 135-142).

[5] = tested on: ZmCAS1 transcript; test: Northern blot of maize callus, leaf and anther RNA treated with CBSU, ZmCAS1 probe; conditions: CBSU-treated tissues; FIG. 3
[6] = tested on: ZmCAS1 transcript; test: Northern blot of maize anther RNA from CBSU-treated plants, ZmCAS1 probe; type: in vivo; conditions: FIG. 2
Protocol: as §1, §2

[7] = tested on: truncated 1.0 kb ZmCAS1 promoter driving GUS reporter; test: GUS staining (X-Gluc) of rice callus events transformed with PHP16974; type: cell-based, Oryza sativa cv. Kitaake; conditions: four PHP16974 events, 100 mg/liter CBSU, 24 hours; FIG. 9
Excerpt: To determine whether the ZmCAS1 promoter could conditionally regulate expression in response to safener treatment or heat treatment in plant species other than maize, Agrobacterium-mediated transformation was used to generate integrated copies of PHP16974 (ZmCAS1HindIII Pro:GUS) comprising the truncated 1.0 kb ZmCAS1 promoter for studies in rice. Scutellum from 10-14 day old germinating seeds (Oryza sativa cv. Kitaake) was used for rice transformation experiment (Toki. 1997, PI Mol. Biol Reporter 15:16-21). Bialophos-resistant callus events containing PHP16974 were selected and screened for their ability to respond to safener application. Four independent bialophos-resistant events were grown on maintenance media or maintenance media containing 100 mg/liter CBSU for 24 hours, removed and stained with X-Gluc. […] PHP16974 bialophos-resistant events were regenerated into plants. Leaf tissue was collected from these plants and used for DNA hybridization analyses to identify single-copy PHP16974 insertions. These plants were allowed to set selfed seed and were used for subsequent studies to monitor GUS expression under the transcriptional control of the ZmCAS1 promoter. Sixteen seed were selected from 2 single-copy PHP16974 events were sterilized, grown on hormone-free media at 28° C. or 37° C. for 48 hours and allowed to germinate. […]

[8] = tested on: truncated 1.0 kb ZmCAS1 promoter driving GUS reporter; test: GUS staining (X-Gluc) of maize callus events transformed with PHP16974; type: cell-based; conditions: seven PHP16974 callus events, 100 mg/liter CBSU, room temperature; FIG. 4B
[9] = tested on: 1.0 kb ZmCAS1 promoter driving MS45; test: Northern analysis of MS45 mRNA in ms45/ms45 maize callus transformed with PHP16972; type: cell-based; conditions: five PHP16972 ms45/ms45 callus events, 100 mg/liter CBSU, room temperature, 18 hours; FIG. 6
Excerpt: T-DNA vectors PHP16972 (SEQ ID NO:13, ZmCAS1HindIII Pro: MS45/35S:PAT) and PHP16973 (SEQ ID NO: 14, ZmCAS1 BamPro:MS45/35S:PAT) were used to transform maize callus which was generated to contain a segregating population of MS45/ms45 heterozygous and ms45/ms45 homozygous mutant plants. In order to detect MS45 RNA or protein expression under the control of the 1.0 or 1.7 kb ZmCAS promoter in maize anthers, plants containing a naturally occurring mutation in the maize MS45 gene which results in loss of MS45 RNA and protein were used for these studies. Pollen from MS45/ms45 plants were used to fertilize male-sterile ms45/ms45 plants for the purpose of generating embryos which would be ms45/ms45 as described in Cigan et al 2001. […] Five random bialophos-resistant callus events containing integrated copies of PHP16972 were placed onto maintenance media (FIG. 5, (−)) and maintenance media containing 100 mg/liter safener CBSU-2 (FIG. 5 (+)) at room temperature for 18 hours, removed and PolyA+ RNA prepared and used for RNA analysis as described (Cigan et al. 2001. Sex. Plant Reprod. 14, 135-142) using the ZmMS45 and ZmActin probes for hybridization analysis. […] A very low signal was observed when callus was grown in the absence of CBSU. Actin was used as a control probe to show nearly equivalent RNA levels were present in all samples. […]

**Q.** Which “MS45 protein in leaf extracts” value ([1]; FIG. 7) does the source give for `NC(=O)NS(=O)(=O)c1ccccc1Cl` [CBSU, N-(aminocarbonyl)-2-chlorobenzenesulfonamide] here?
**A.** The value was “increased steady-state levels of the MS45 protein”.

**Q.** What about the “MS45 protein in anther extracts” value ([1]; FIG. 8) of the same molecule?
**A.** The value was “Increased MS45 protein”.

**Q.** And the “GUS expression in callus” value ([2]; 10 mg/l CBSU)?
**A.** The value was “low levels of GUS expression”.

**Q.** And the “GUS expression in callus” value ([2]; 100 mg/l CBSU)?
**A.** The value was “strong GUS expression”.

**Q.** And the “GUS expression in leaf punches” value [3]?
**A.** Its value is “strong GUS expression”.

**Q.** What about the “IN2-2 hybridization signal in anther mRNA” value [4] of the same molecule?
**A.** Its value is “strong hybridization signals”.

**Q.** And the “ZmCAS1 hybridization in mRNAs from callus, leaf and anther” value [5]?
**A.** The value was “strong hybridization”.

**Q.** And the “ZmCAS1 hybridization signal in anther mRNA” value ([6]; male-fertile plants watered with 30 mg 2-CBSU (+, F))?
**A.** The value was “strong hybridization signals”.

**Q.** What about the “ZmCAS1 hybridization signal in anther mRNA” value ([6]; male-sterile 5126:DAM plants, CBSU-treated (+, S)) of the same molecule?
**A.** The value was “reduced ZmCAS1 signal”.

**Q.** What about the “GUS expression in rice callus” value [7] of the same molecule?
**A.** Its value is “strong GUS expression”.

**Q.** What about the “GUS expression in callus” value [8] of the same molecule?
**A.** The value was “inducible GUS expression”.

**Q.** What about the “MS45 mRNA hybridization signal in callus” value [9] of the same molecule?
**A.** The value was “strong induction”.
